# Experimental data taken from article PMC11364543, “Molecular recognition of an odorant by the murine trace amine-associated receptor TAAR7f” (Nature Communications, 2024).
# Molecular target: T1, mTAAR7f (Mus musculus, UniProt Q5QD08)
# T1 construct: gene Taar7f; full length; N-terminal signal peptide, twin-strep and SNAP-tag, C-terminal nanoluc; BRET partner NES-Venus-mini-Gs (reporter)
# T1 sequence (Q5QD08 1-358): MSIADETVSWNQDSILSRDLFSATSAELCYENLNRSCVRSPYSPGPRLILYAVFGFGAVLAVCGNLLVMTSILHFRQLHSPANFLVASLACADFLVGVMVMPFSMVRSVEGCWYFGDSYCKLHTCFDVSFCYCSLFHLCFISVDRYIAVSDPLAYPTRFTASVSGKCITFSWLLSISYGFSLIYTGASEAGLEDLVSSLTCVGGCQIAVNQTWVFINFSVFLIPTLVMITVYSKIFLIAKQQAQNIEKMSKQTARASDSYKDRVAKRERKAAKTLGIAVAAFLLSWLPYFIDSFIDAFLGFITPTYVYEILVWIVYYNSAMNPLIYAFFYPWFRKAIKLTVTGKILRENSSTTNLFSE
# Assay: BRET mini-Gs recruitment (nanoluc receptor, NES-Venus-mGs), concentration-response
# Type: cell-based
# Text: BRET mini-Gs recruitment (nanoluc receptor, NES-Venus-mGs), concentration-response on mTAAR7f | BRET ratios measured for increasing concentrations of the agonist DMCHA for the wild-type mTAAR7f
smiles,measurement,value
"CN(C)C1CCCCC1 [N,N-dimethylcyclohexylamine]",EC50,8.51 µM
